In article PMC11555526, “Development of 2-Aminoadenine-Based Proteolysis-Targeting Chimeras (PROTACs) as Novel Potent Degraders of Monopolar Spindle 1 and Aurora Kinases” (ACS Pharmacology & Translational Science, 2024):
“And” between values parts separate entries of the source, which are not always exact repeats. Equal values may be shown once.

Assays:
[1] = target: T1, AURKB (MV4-11^AURKB-HiBiT cells) (Homo sapiens, UniProt Q96GD4); test: HiBiT assay, AURKB degradation; type: cell-based; parameters: key to Dmax (maximal degradation) AURKB: compounds with degradation less than 15% reported as “inactive”; conditions: 6 h treatment; for DC50: read-out: DC50 (half-maximal degradation concentration) AURKB
T1 construct: expressed in transfected cells; host or cells: MV4-11, lentiviral transduction (pRRL-PGK vector)
T1 sequence (Q96GD4 1-345 isoform Q96GD4-5): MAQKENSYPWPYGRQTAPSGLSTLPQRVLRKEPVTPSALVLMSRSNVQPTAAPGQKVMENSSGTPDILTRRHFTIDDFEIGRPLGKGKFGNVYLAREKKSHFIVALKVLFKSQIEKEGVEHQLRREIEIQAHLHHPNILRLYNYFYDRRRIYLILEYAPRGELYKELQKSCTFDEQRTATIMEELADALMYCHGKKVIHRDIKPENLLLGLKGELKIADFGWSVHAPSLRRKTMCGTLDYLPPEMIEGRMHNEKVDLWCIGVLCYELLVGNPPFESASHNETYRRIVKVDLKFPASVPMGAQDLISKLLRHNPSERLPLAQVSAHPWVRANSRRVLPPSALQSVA
Procedure: (§1) The effects of the synthesized compounds on AURKA, AURKB, and TTK mitotic kinases were then assessed in cellular systems. For this, HiBiT cell lines were generated for all three mitotic kinases. A small 11 amino acid peptide fragment of luciferase (HiBiT) was fused to the coding sequence of the proteins and stably transduced in the MV4-11 cell line (MV4-11^AURKA-HiBiT, MV4-11^AURKB-HiBiT, and MV4-11^HiBiT-TTK).
(§2) The stable cell lines MV4-11^AURKA-HiBiT, MV4-11^AURKB-HiBiT, and MV4-11^HiBiT-TTK cells were generated by lentiviral infection. Lentivirus was produced using the respective HiBiT vector, plasmids psPAX2, and pMD2.G in HEK293 cells. The virus supernatant was filtered and MV4-11 cells were doubly infected with the supernatant. The cells were selected after 48 h of infection until the control cells were dead to get the stable cell line.
(§3) The cells stably expressing HiBiT-tagged protein were seeded into 96-well plates and treated with serial dilutions of compounds for the indicated time points. At the end point, the assay was performed using the Nano-Glo HiBiT Lytic Detection System (Promega) according to the manufacturer’s instruction. Luminescence was measured on a GloMax 96 Microplate Luminometer (Promega) or a Tecan Spark Multiplate reader (Tecan). DC50 was calculated using concentrations showing sigmoidal behavior with the dose–response (four parameters) equation in Prism (GraphPad).

[2] = target: T2, AURKA (MV4-11^AURKA-HiBiT cells) (Homo sapiens, UniProt O14965); test: HiBiT assay, AURKA degradation; type: cell-based; parameters: key to Dmax (maximal degradation) AURKA: compounds with degradation less than 15% reported as “inactive”; conditions: 6 h treatment, MV4-11^AURKA-HiBiT cells; for DC50: read-out: DC50 (half-maximal degradation concentration) AURKA
T2 construct: expressed in transfected cells; host or cells: MV4-11, lentiviral transduction
T2 sequence (O14965 1-403): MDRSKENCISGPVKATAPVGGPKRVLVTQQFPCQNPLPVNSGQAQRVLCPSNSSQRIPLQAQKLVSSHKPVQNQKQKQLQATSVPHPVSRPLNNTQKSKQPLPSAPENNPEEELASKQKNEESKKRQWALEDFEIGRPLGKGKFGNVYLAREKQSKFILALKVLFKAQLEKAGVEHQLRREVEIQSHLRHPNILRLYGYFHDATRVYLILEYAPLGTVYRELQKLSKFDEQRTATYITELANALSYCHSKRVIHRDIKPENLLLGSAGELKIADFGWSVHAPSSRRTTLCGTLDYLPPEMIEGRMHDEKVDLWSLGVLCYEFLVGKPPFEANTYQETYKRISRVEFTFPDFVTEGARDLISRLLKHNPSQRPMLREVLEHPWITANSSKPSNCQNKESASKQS
Procedure: as §1, §2, §3

[3] = target: T3, TTK (MV4-11^HiBiT-TTK cells) (Homo sapiens, UniProt P33981); test: HiBiT assay, TTK degradation; type: cell-based; parameters: key to Dmax (maximal degradation) TTK: compounds with degradation less than 15% reported as “inactive”; conditions: 6 h treatment, MV4-11^HiBiT-TTK cells; for DC50: read-out: DC50 (half-maximal degradation concentration) TTK
T3 construct: expressed in transfected cells; host or cells: MV4-11, lentiviral transduction (pRRL-PGK-HiBiT entry vector)
T3 sequence (P33981 1-857): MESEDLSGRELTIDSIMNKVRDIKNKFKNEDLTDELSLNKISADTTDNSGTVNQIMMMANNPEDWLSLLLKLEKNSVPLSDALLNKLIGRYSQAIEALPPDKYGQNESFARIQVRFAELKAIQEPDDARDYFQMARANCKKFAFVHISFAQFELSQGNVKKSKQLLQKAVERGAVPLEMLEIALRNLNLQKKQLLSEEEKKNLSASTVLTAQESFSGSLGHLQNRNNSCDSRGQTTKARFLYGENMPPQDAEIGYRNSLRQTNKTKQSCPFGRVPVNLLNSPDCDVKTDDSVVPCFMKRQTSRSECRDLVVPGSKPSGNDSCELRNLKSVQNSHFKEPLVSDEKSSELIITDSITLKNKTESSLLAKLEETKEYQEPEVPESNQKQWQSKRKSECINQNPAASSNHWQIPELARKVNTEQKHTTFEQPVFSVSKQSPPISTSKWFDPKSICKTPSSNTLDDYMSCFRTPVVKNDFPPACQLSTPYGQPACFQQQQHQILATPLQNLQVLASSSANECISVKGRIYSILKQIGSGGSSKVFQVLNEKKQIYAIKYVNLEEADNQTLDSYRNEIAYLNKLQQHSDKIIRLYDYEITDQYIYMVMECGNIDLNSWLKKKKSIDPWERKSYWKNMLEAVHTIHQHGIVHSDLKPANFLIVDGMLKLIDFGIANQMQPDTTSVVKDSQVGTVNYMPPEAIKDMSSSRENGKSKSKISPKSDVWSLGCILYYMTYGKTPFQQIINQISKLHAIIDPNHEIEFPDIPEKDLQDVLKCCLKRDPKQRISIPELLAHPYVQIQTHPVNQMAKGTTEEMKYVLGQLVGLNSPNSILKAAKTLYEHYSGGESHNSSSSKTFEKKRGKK
Procedure: as §1, §2, §3

MV4-11 cells (naive) = test: alamarBlue cell viability assay; type: cell-based, human; conditions: 72 h treatment, MV4-11 cells (naive); for EC50: read-out: EC50 (concentration that decreases cell viability by 50%)
Procedure: Finally, to study the effect of the compounds on cancer cell survival, MV4-11 cells were treated with various concentrations of the chimeras and the cell viability was assessed after 72 h. […] As opposed to the parent inhibitor MPS1-IN-3, its derivatives except 40 were not cytotoxic (Figure S7B, Table 5). […] In addition, most of the SF1-based derivatives affected the viability of MV4-11 cells in nanomolar concentrations (Table 5).
For the alamarBlue cell viability assay, cells were seeded in 96-well plates and treated with indicated concentrations of the compounds or vehicle. A few hours before the experimental end point (72 h, unless otherwise stated), the cells were incubated with the alamarBlue reagent. Finally, fluorescence (excitation: 550 nm and emission: 600 nm) or absorbance (570 nm with reference at 600 nm) was measured on a Tecan Spark Multiplate reader (Tecan).

| SMILES | DC50 (half-maximal degradation concentration) AURKB [1] | Dmax (maximal degradation) AURKB [1] | DC50 (half-maximal degradation concentration) AURKA [2] | Dmax (maximal degradation) AURKA [2] | DC50 (half-maximal degradation concentration) TTK [3] | Dmax (maximal degradation) TTK [3] | EC50 (concentration that decreases cell viability by 50%) (MV4-11 cells (naive)) | DC50 [1] | DC50 [2] | EC50 (MV4-11 cells (naive)) | DC50 [3] |
| --- | --- | --- | --- | --- | --- | --- | --- | --- | --- | --- | --- |
| COc1cc(N2CCC(OCC(=O)NCCCCNc3cccc4c3C(=O)N(C3CCC(=O)NC3=O)C4=O)CC2)ccc1Nc1nc(Nc2ccccc2S(=O)(=O)C(C)C)c2nc[nH]c2n1 (centres unmarked) [Compound 36] | – (compounds with degradation less than 25% were not calculated and reported as “–”) | inactive | – (compounds with degradation less than 25% were not calculated and reported as “–”) | inactive | – (compounds with degradation less than 25% were not calculated and reported as “–”) | inactive | — (compounds with decrease of cell viability less than 50% were not calculated and reported as “—”) | – | – | – | – |
| COc1cc(N2CCC(OCC(=O)NCCOCCOCCNc3cccc4c3C(=O)N(C3CCC(=O)NC3=O)C4=O)CC2)ccc1Nc1nc(Nc2ccccc2S(=O)(=O)C(C)C)c2nc[nH]c2n1 (centres unmarked) [Compound 38] | – (compounds with degradation less than 25% were not calculated and reported as “–”) | inactive | – (compounds with degradation less than 25% were not calculated and reported as “–”) | inactive | – (compounds with degradation less than 25% were not calculated and reported as “–”) | 16.10% | — (compounds with decrease of cell viability less than 50% were not calculated and reported as “—”) | – | – | – | – |
| COc1cc(N2CCC(OCC(=O)N3CCN(c4cccc5c4C(=O)N(C4CCC(=O)NC4=O)C5=O)CC3)CC2)ccc1Nc1nc(Nc2ccccc2S(=O)(=O)C(C)C)c2nc[nH]c2n1 (centres unmarked) [Compound 40] | – | 43.70% | – | 41.60% | – (compounds with degradation less than 25% were not calculated and reported as “–”) | 23.00% | – | 1680 nM | 282 nM | 836 nM | – |
| COc1cc(N2CCC(OCC(=O)NCCNC(=O)CCCC(=O)Nc3cccc4c3C(=O)N(C3CCC(=O)NC3=O)C4=O)CC2)ccc1Nc1nc(Nc2ccccc2S(=O)(=O)C(C)C)c2nc[nH]c2n1 (centres unmarked) [Compound 41] | – (compounds with degradation less than 25% were not calculated and reported as “–”) | inactive | – (compounds with degradation less than 25% were not calculated and reported as “–”) | inactive | – (compounds with degradation less than 25% were not calculated and reported as “–”) | inactive | — (compounds with decrease of cell viability less than 50% were not calculated and reported as “—”) | – | – | – | – |
| Cc1ncsc1-c1ccc(CNC(=O)[C@@H]2C[C@@H](O)CN2C(=O)[C@@H](NC(=O)CCCC(=O)N2CCN(c3ccc(Nc4nc(NC5CCCCC5)c5nc[nH]c5n4)cc3)CC2)C(C)(C)C)cc1 [Compound 43] | – | 33.80% | – | 55% and 55.60% | – | 32.70% | – | 2280 nM | 684 nM | 584 nM | 1960 nM |
| Cc1ncsc1-c1ccc(CNC(=O)[C@@H]2C[C@@H](O)CN2C(=O)[C@@H](NC(=O)CCCC(=O)NCC(=O)N2CCN(c3ccc(Nc4nc(Nc5ccccc5S(=O)(=O)C(C)C)c5nc[nH]c5n4)cc3)CC2)C(C)(C)C)cc1 [Compound 46] | – | 29.40% | – | 57.90% | – (compounds with degradation less than 25% were not calculated and reported as “–”) | inactive | – | 466 nM | 772 nM | 1980 nM | – |
| Cc1ncsc1-c1ccc(CNC(=O)[C@@H]2C[C@H](O)CN2C(=O)[C@@H](NC(=O)COCCOCC(=O)N2CCN(c3ccc(Nc4nc(Nc5ccccc5S(=O)(=O)C(C)C)c5nc[nH]c5n4)cc3)CC2)C(C)(C)C)cc1 [Compound 51] | – | 44.00% | – (compounds with degradation less than 25% were not calculated and reported as “–”) | inactive | – | 73.95% | – | 1160 nM | – | 421 nM | 993 nM |
| Cc1ncsc1-c1ccc(CNC(=O)[C@@H]2C[C@@H](O)CN2C(=O)[C@@H](NC(=O)CCC(=O)NCCNC(=O)CCC(=O)N2CCN(c3ccc(Nc4nc(NC5CCCCC5)c5nc[nH]c5n4)cc3)CC2)C(C)(C)C)cc1 [Compound 55] | – (compounds with degradation less than 25% were not calculated and reported as “–”) | inactive | – | 28.30% | – | 28.40% | – | – | 9840 nM | 6910 nM | 5650 nM |
